Measured values taken from patent US4766110A, “Novel complex amido and imido derivatives of carboxyalkyl peptides” (priority 1986, dated 1988).
Entries after “also recorded” stand apart in the source; their conditions may differ.

What was measured:
[1] = test system: mean arterial blood pressure response to angiotensin I; assay: Intravenous effectiveness: blood pressure response to angiotensin I in anesthetized rats; type: in vivo; conditions: for Blood Pressure Response to 400 ng/kg of Angiotensin I: rat, 0.5 μmole/kg IV
Experimental: Rats (190-290 g body weight) were fasted overnight and then anesthetized with intraperitoneal pentobarbital, 50-60 mg/kg. Tracheostomy was performed and the animals were ventilated mechanically. A cannula was inserted into a femoral vein for injection of angiotensin I, and a second cannula was inserted into a common carotid artery for direct measurement of arterial blood pressure. Heparin, 1,000 units, was injected via the femoral vein to prevent coagulation. Blood pressure was measured with a pressure transducer connected to a polygraph. The rats were injected with […] of angiotensin I in 20 μl of 0.9 g % NaCl, an amount of angiotensin I sufficient to raise mean arterial blood pressure by approximately 48 mm Hg.
After the responsiveness of a given rat to angiotensin I was established, the named compound at 0.5 μmole/kg (drug dissolved in 15 microliters of 0.9% NaCl) was given intravenously. At time intervals, the effects of 400 ng/kg of angiotensin I on mean arterial blood pressure were tested. Results are shown below:
Experiments were carried out using rats according to Example 30.

[2] = biological target: T1, human plasma angiotensin converting enzyme (Homo sapiens, UniProt P12821); assay: In vitro assay of inhibition of angiotensin converting enzyme; type: biochemical; conditions: [3H]benzoyl-Gly-His-Leu 80 nM, pH 8.0, 37° C., 15 minutes, I50 approximates Ki
T1 construct: partially-purified human plasma angiotensin converting enzyme; from tissue; host or cells: human plasma
Experimental: Compounds of this invention were assayed through the following protocol: 25 microliters of buffer (0.05M Hepes buffer, pH 8.0, plus 0.1M NaCl and 0.75M Na2 SO4) or 25 microliters of an inhibitor in buffer was added to the bottom of a 7 ml liquid scintillation vial. To this was added 100 microliters of buffered substrate [S], [^3 H]benzoyl-Gly-His-Leu, 80 nM (25 Ci/mmole). The reaction was started by adding 100 microliters of partially-purified human plasma angiotensin converting enzyme, or 100 microliters of buffer alone. The concentration of enzyme [E] used was that required to hydrolyze 8-12% of substrate when incubated at 37° C. for 15 minutes. The scintillation vials and their contents were incubated at 37° C. for 15 minutes, and the reactions were stopped by adding 200 microliters of 0.5M HCl to each vial. The radioactive reaction product, [^3 H]benzoyl-Gly(hippuric acid), was separated from unhydrolyzed substrate by adding and mixing (by inversion) 3 ml of Ventrex Cocktail No. 1 (Ventrex Laboratories, Inc., Portland, Maine), a fluid disclosed in copending U.S. patent application Ser. No. 184,653, filed Sept. 6, 1980. Extractable ^3 H was quantified by liquid scintillation counting. Substrate, in c.p.m., was quantified by scintillation counting of a vial containing 100 μl of buffered substrate in 5 ml of RIAfluor (New England Nuclear). The reaction mixture containing al constituents except for inhibitor was termed the control (C). The reaction mixture lacking enzyme and inhibitor was called the blank (B). Reaction mixtures containing inhibitor (varied over the range of 10^-4 -10^-12 M) were called the test (T) reactions. Under the conditions of this assay, the reaction obeys first order enzyme kinetics, thus the concentration of inhibitor required to inhibit the rate of hydrolysis by half (I50) approximates the Ki value. The results were estimated by use of the formula: [formula] where C=control c.p.m.; B=blank c.p.m.; [S]=substrate c.p.m. The factor 100 converts fractional substrate utilization into percentage utilization,and 1/15 minute corrects to percentage substrate utilization/minute. Thus, [E] is enzyme activity in percentage substrate utilization/minute. By substituting T for C, hydrolysis rates are computed for the test reaction mixtures. By comparing a given test rate against the control rate, the degree of inhibition can be computed.

[3] = Loss of activity of aqueous SQ14225 solution on standing; type: physicochemical; conditions: 1 mg per ml, pH of about 8, ambient conditions
[4] = cited from earlier work

T1 sequence (P12821 30-1232 limits assumed): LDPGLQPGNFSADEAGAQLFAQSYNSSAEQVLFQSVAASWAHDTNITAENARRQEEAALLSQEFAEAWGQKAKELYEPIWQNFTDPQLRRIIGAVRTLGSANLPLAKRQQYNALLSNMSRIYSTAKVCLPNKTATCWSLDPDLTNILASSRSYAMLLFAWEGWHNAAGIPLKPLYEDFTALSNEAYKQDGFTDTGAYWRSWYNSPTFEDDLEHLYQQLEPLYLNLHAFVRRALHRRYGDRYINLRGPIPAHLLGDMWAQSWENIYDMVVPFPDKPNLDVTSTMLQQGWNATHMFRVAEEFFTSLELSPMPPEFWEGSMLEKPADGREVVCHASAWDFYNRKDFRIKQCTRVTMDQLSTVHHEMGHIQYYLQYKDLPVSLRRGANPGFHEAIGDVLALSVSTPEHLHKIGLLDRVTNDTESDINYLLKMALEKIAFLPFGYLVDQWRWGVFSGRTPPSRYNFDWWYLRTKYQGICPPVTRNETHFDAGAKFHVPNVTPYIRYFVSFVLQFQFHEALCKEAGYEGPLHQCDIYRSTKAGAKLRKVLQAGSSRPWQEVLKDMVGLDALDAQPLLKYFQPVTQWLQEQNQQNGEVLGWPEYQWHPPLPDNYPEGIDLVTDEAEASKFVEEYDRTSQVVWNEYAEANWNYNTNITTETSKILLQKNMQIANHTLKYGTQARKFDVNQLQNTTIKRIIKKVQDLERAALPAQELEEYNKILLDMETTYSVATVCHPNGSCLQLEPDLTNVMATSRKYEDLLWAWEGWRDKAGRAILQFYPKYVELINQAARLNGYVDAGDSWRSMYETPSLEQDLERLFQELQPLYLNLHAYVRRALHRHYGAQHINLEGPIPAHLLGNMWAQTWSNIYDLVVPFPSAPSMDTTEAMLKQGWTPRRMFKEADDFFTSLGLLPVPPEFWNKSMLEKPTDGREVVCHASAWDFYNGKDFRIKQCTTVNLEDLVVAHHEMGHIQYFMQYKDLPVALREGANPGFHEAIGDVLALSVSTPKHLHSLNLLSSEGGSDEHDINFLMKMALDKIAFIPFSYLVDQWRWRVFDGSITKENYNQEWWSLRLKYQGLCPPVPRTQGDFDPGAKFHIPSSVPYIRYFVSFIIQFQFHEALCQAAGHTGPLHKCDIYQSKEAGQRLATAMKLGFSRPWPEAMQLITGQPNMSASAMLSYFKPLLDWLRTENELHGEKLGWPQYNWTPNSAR

| SMILES | Blood Pressure Response to 400 ng/kg of Angiotensin I ([1]; 5 min after administration) | Blood Pressure Response to 400 ng/kg of Angiotensin I ([1]; 10 min after administration) | Blood Pressure Response to 400 ng/kg of Angiotensin I ([1]; 15 min after administration) | Blood Pressure Response to 400 ng/kg of Angiotensin I ([1]; 20 min after administration) | Blood Pressure Response to 400 ng/kg of Angiotensin I ([1]; 25 min after administration) | Blood Pressure Response to 400 ng/kg of Angiotensin I ([1]; 30 min after administration) | Blood Pressure Response to 400 ng/kg of Angiotensin I ([1]; 50 min after administration) | Blood Pressure Response to 400 ng/kg of Angiotensin I ([1]; 60 min after administration) | Blood Pressure Response to 400 ng/kg of Angiotensin I ([1]; 70 min after administration) | Blood Pressure Response to 400 ng/kg of Angiotensin I ([1]; 80 min after administration) | Blood Pressure Response to 400 ng/kg of Angiotensin I ([1]; +1 min after administration) | IC50 [2] | also measured |
| --- | --- | --- | --- | --- | --- | --- | --- | --- | --- | --- | --- | --- | --- |
| CC(N[C@@H](CCC(=O)Nc1ccccc1)C(=O)O)C(=O)N1CCC[C@H]1C(=O)O (stereo partly drawn) [Example 26, N-[L-1-carboxy-3-(carbo-anilide)propyl]-Alanyl-L-Proline] | 37 % of Control | 37 % of Control | 40 % of Control | 40 % of Control | 40 % of Control | 35 % of Control | 46 % of Control | 46 % of Control | 48 % of Control | 52 % of Control | 42 % of Control | 5.2 nM | Blood Pressure Response to 400 ng/kg of Angiotensin I ([1]; 40 min after administration): 35 % of Control; Blood Pressure Response to 400 ng/kg of Angiotensin I ([1]; 90 min after administration): 54 % of Control; Blood Pressure Response to 400 ng/kg of Angiotensin I ([1]; 102 min after administration): 62.5 % of Control; IC50 ([2]; listed as N-[L-1-carboxy-3-(carboanilide)propyl]-D,L-Ala-L-Pro): ~1 nM |
| CC(N[C@@H](CCC(=O)Nc1ccc(I)cc1)C(=O)O)C(=O)N1CCC[C@H]1C(=O)O (stereo partly drawn) [Example 27, N-[L-1-carboxy-3-(carbo-4-iodo-anilide)propyl]-Alanyl-L-Proline] | 42 % of Control | 46 % of Control | 52 % of Control | 60 % of Control | 67 % of Control | 71 % of Control | 83 % of Control | 92 % of Control | 100 % of Control | 104 % of Control | 33 % of Control | 0.23 nM | increase in intravenous effectiveness on removal of iodine ([1]; de-iodo compound versus the 4-iodoanilide): three-fold; Blood Pressure Response to 400 ng/kg of Angiotensin I ([1]; 35 min after administration): 71 % of Control; IC50 ([2]; listed as N-[L-1-carboxy-3-(carbo-4-iodoanilide)propyl]-D,L-Ala-L-Pro): ~1 nM |
| CC(N[C@@H](CC(=O)N1CCCC1)C(=O)O)C(=O)N1CCC[C@H]1C(=O)O (stereo partly drawn) [Example 28, N-[L-1-carboxy-2-(carbopyrrolide)ethyl]-Alanyl-L-Proline] | – | – | – | – | – | – | – | – | – | – | – | 140 nM | IC50 ([2]; listed as N-[L-1-carboxy-2-(carbopyrrolide)ethyl]-D,L-Ala-Pro): ~100 nM |
| C[C@H](CS)C(=O)N1CCC[C@H]1C(=O)O [SQ14225, D-3-mercapto-2-methylpropanoyl-L-proline] | – | – | – | – | – | – | – | – | – | – | – | – | activity of fresh aqueous solution on standing [3]: becomes substantially less active upon standing for as little as 30 minutes; renal biopsy findings ([4]; 13 patients treated with SQ14225, Hoorntje et al.): evidence of immune complex deposition along the glomerular basement membranes; adverse effects in man ([4]; patients, Gavras et al.): occasional allergic reactions; also recorded: fevers and rashes |
